Assay results taken from article PMC8143291, “Cytotoxicity and Microbicidal Activity of Commonly Used Organic Solvents: A Comparative Study and Application to a Standardized Extract from Vaccinium macrocarpon” (Toxics, 2021).

How the values were obtained:
Test in all cases: Broth microdilution MIC/MBC
[1] = system: S. Aureus ATCC 29213; format: cell-based, Staphylococcus aureus; conditions: 24 h exposure; v/v; n = 3
Description: (§1) The bacterial strains used for AST of the solvents included: Staphylococcus aureus (ATCC 29213), Staphylococcus aureus—MRSA (NBIMCC 8327—resistant to methicillin and oxacillin, National Bulgarian Collection for Industrial Microorganisms and Cell Cultures, Sofia, Bulgaria), Streptococcus pyogenes (SAIMC 10535, Collection of the Stephan Angeloff Institute of Microbiology, Sofia, Bulgaria), Enterococcus faecalis (ATCC 29212), Escherichia coli (ATCC 35218), Pseudomonas aeruginosa (ATCC 27853), and Yersinia enterocolitica (IP864 O:3, Collection of Institut Pasteur, Paris, France). The selected strains are the most often investigated ones in the AST research studies in correspondence with the standard ISO 20776-1 Part 1: Reference method for testing the in vitro activity of antimicrobial agents against rapidly growing aerobic bacteria involved in infectious diseases. The antimycotic activity was tested on Candida albicans (CBS 562, Utrecht, The Netherlands). The strains S. aureus, MRSA, E. coli and E. faecalis were grown on Mueller–Hinton broth/agar (MHB/MHA); S. pyogenes, P. aeruginosa, Y. enterocolitica and C. albicans were grown on brain heart infusion (BHI) broth/agar; E. coli was also grown on Luria–Bertani broth/agar (LBB/LBA).
(§2) The minimum inhibitory concentration (MIC) for each solvent was estimated by the broth microdilution method (BMD) in 96-well microplates, following ISO 20776/1-2006 [3] and CLSI protocols. Briefly, a standardized bacterial inoculum was prepared from each bacterial species by suspending 3–4 colonies from a pure culture into 4 mL sterile saline. The turbidity of the inocula was adjusted to McFarland 0.5 (1.0 × 10^8 CFU/mL, λ = 600 nm), and 50 µL were resuspended in 10 mL of the appropriate culture medium for each strain. The bacterial inocula were added to microtiter trays containing equivalent volumes of medium loaded with the relevant solvent in concentrations varying from 0.025 to 25% volume fraction. The final volume of each sample was 100 µL/well. The plates were incubated at 37 °C for 24 h. The pure culture medium served as a negative control. Every MIC was evaluated visually as the lowest concentration without visible growth. […] MBC was defined as the lowest compound’s concentration reducing the colony growth of the initial bacterial inoculum by ≥ 99.9%.

[2] = system: S. Aureus MRSA NBIMCC 8327; format: cell-based, Staphylococcus aureus; conditions: 24 h exposure; v/v; n = 3
Description: as §1, §2

[3] = system: E. faecalis ATCC 29212; format: cell-based, Enterococcus faecalis; conditions: 24 h exposure; v/v; n = 3
Description: as §1, §2

[4] = system: P. aeruginosa ATCC 27853; format: cell-based, Pseudomonas aeruginosa; conditions: 24 h exposure; v/v; n = 3
Description: as §1, §2

[5] = system: S. pyogenes SAIMC 10535; format: cell-based, Streptococcus pyogenes; conditions: 24 h exposure; v/v; n = 3
Description: as §1, §2

[6] = system: Candida Albicans SAIMC 562; format: cell-based; conditions: 24 h exposure; v/v; n = 3
Description: as §1, with “The antimycotic activity was tested on Candida albicans (CBS 562, Utrecht, The Netherlands).” left out
as §2

[7] = system: Y. enterocolitica IP 864 O: 3; format: cell-based, Yersinia enterocolitica; conditions: 24 h exposure; v/v; n = 3
Description: as §1, §2

[8] = system: E. coli ATCC 35218; format: cell-based, Escherichia coli; conditions: 24 h exposure, v/v, n = 3
Description: as §1, §2

| Compound | MBC [1] | MIC [1] | MBC [2] | MIC [2] | MBC [3] | MIC [3] | MBC [4] | MIC [4] | MBC [5] | MIC [5] | MBC [6] | MIC [6] | MBC [7] | MIC [7] | MBC ([8]; in LBB) | MIC ([8]; in LBB) | MBC ([8]; in MHB) | MIC ([8]; in MHB) |
| --- | --- | --- | --- | --- | --- | --- | --- | --- | --- | --- | --- | --- | --- | --- | --- | --- | --- | --- |
| C[S+](C)[O-] [DMSO, dimethyl sulfoxide] | >25% | 25% | >25% | 25% | >25% | 12.5% | >25% | 6.25% | >25% | 12.5% | 6.25% | 6.25% | 6.25% | 3.125% | >25% | 12.5% | >25% | 12.5% |
| CCO [EtOH, ethanol] | >25% | >25% | >25% | >25% | >25% | >25% | >25% | >25% | >25% | >25% | >25% | >25% | >25% | >25% | >25% | >25% | >25% | >25% |
| polyethylene glycol of average molecular weight 400 [PEG-400] | >25% | >25% | 25% | 25% | >25% | 25% | >25% | 25% | >25% | 25% | >25% | >25% | 12.5% | 12.5% | >25% | 25% | >25% | >25% |
